Among the data in PMC9516332 (Frontiers in Oncology, 2022) are inhibition values, retold here.

Common to all, as to test: Kinase panel profiling at 1 µmol/L (MSA or IMAP), percentage inhibition
What all share (type): biochemical

Assay [1] addresses panel of 255 wild-type kinases (Homo sapiens, UniProt P54646). The note with it: AMPKα2/β1/γ1 kinase assay; 1 µmol/L single concentration; read-out: %-inhibition AMPKα2/β1/γ1.
In assay [2] the target is T1, panel of 255 wild-type kinases (Homo sapiens, UniProt O14920).
T1 sequence (O14920 1-756): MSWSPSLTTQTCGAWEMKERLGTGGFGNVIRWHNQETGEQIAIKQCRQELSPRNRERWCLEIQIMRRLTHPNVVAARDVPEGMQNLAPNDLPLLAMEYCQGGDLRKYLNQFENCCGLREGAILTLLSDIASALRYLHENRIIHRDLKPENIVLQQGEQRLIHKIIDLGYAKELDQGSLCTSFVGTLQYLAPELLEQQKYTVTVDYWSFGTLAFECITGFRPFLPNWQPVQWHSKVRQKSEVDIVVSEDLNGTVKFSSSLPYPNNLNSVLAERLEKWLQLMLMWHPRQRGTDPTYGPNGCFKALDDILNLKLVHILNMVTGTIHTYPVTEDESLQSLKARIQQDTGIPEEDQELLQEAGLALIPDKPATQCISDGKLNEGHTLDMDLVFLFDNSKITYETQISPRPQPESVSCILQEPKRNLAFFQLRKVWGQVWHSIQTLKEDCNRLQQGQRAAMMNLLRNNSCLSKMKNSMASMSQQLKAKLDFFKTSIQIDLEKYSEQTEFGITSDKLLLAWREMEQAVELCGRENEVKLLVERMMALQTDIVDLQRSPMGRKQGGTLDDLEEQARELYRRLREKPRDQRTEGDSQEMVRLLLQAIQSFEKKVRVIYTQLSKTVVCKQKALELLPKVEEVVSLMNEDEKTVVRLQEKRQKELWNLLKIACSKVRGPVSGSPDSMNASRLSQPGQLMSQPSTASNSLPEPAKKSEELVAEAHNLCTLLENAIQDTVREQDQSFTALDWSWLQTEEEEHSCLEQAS
The note with it: kinase IKKβ; 1 µmol/L single concentration; read-out: %-inhibition at 1 µmol/L, IKKβ.

In assay [3] the target is panel of 255 wild-type kinases (Homo sapiens, UniProt Q8N4C8). The note with it: MINK; 1 µmol/L single concentration; read-out: %-inhibition, MINK.
For assay [4], the target named is T2, panel of 255 wild-type kinases (Homo sapiens, UniProt O00141).
T2 sequence (O00141 1-431): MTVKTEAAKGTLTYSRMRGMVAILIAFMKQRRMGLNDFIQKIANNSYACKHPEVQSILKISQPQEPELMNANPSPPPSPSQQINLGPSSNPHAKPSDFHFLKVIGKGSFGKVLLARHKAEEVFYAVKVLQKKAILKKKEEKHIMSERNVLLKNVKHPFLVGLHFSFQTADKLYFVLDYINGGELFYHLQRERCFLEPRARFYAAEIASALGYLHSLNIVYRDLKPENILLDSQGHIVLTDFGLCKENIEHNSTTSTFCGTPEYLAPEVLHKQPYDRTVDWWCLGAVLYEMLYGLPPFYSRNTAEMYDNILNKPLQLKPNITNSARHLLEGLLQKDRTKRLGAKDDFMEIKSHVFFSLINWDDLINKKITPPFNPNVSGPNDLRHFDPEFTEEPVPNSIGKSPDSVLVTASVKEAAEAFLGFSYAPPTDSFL
As to conditions: kinase SGK; 1 µmol/L single concentration; read-out: %-inhibition at 1 µmol/L, SGK.

The target of assay [5] is T3, panel of 255 wild-type kinases (Homo sapiens, UniProt Q96PY6).
T3 sequence (Q96PY6 1-1258): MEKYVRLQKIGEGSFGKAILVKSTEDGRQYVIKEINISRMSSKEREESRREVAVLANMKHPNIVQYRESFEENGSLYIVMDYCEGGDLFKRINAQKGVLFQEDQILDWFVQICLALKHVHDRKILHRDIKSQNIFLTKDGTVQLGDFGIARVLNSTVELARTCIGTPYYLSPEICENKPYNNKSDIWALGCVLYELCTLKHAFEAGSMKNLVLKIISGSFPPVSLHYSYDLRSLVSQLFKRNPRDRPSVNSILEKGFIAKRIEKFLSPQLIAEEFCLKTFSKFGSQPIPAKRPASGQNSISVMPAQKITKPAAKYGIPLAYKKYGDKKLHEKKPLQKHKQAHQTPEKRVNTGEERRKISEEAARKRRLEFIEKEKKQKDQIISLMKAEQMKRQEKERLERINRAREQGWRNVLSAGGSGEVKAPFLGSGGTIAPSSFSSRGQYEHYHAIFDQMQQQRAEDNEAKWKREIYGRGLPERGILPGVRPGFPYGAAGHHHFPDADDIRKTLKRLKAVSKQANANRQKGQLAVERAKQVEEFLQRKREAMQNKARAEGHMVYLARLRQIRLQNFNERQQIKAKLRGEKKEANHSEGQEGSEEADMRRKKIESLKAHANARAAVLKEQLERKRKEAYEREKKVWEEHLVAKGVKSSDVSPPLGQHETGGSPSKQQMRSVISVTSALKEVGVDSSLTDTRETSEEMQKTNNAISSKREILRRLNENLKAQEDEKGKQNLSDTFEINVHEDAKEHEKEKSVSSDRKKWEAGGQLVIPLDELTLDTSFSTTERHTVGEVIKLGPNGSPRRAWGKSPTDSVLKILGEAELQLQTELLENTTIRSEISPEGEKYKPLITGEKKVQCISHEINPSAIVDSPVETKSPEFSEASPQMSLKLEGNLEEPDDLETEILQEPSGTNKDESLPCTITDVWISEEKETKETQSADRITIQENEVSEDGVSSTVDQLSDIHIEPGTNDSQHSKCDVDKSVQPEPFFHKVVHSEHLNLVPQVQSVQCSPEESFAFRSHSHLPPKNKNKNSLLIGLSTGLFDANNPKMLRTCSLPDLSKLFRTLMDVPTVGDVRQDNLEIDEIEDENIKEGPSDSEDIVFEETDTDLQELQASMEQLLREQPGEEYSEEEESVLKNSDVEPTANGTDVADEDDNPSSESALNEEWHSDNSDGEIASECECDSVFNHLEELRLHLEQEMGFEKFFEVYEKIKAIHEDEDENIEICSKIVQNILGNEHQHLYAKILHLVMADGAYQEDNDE
The note with it: NEK1; 1 µmol/L single concentration; read-out: %-inhibition, NEK1.

Assay [6] has as its target panel of 255 wild-type kinases (Homo sapiens, UniProt Q9HBH9). The note with it: MNK2; 1 µmol/L single concentration; read-out: %-inhibition, MNK2.

Turning to `CO[C@]1(C(=O)N[C@@H](C)c2ccc(-n3cc(F)cn3)nc2)CC[C@H](c2nc(C)cc(Nc3cc(C)[nH]n3)n2)CC1` [pralsetinib], the inhibition at 1 µM in assay [1] was 83%; in assay [2], 32%; in assay [3], -3.43%; in assay [4], 7%; in assay [5] it was -5%; in assay [6] it was 2%.

For `CCn1c(=O)c(-c2cc(NC(=O)Nc3ccccc3)c(F)cc2Br)cc2cnc(NC)cc21` [ripretinib], the inhibition at 1 µM in assay [1] was -22%; in assay [2], 21%; in assay [3], 3.55%; in assay [4], -5%; in assay [5], -1.3%; in assay [6] it was 5%.

As for `COc1ccc(CN2C3CC2CN(c2ccc(-c4cc(OCC(C)(C)O)cn5ncc(C#N)c45)cn2)C3)cn1` [selpercatinib], the inhibition at 1 µM was 28% in assay [1]; -2.15% in assay [2]; -5.33% in assay [3]; 11% in assay [4]; -0.568% in assay [5]; 37% in assay [6].

`Cn1cnc2c(F)c(Nc3ccc(Br)cc3Cl)c(C(=O)NOCCO)cc21` [selumetinib]: the inhibition at 1 µM in assay [1] is 1.9%; in assay [2], 1.34%; in assay [3], -4.5%; in assay [4], 1.83%; in assay [5], -5%; in assay [6], -0.47%.

Consider `Cc1cc(Nc2ncnc3ccc(NC4=NC(C)(C)CO4)cc23)ccc1Oc1ccn2ncnc2c1` [tucatinib], for which the inhibition at 1 µM in assay [1] was -1.44%; in assay [2] it was 1%; in assay [3] it was -4.35%; in assay [4], 0.299%; in assay [5] it was 1.77%; in assay [6] it was 8%.

For `C=CC(=O)N1CCC([C@@H]2CCNc3c(C(N)=O)c(-c4ccc(Oc5ccccc5)cc4)nn32)CC1` [zanubrutinib], the inhibition at 1 µM in assay [1] was -5%; in assay [2], -0.69%; in assay [3], -1.27%; in assay [4], -0.675%; in assay [5], -4%; in assay [6], -5%.
